Test results from ChEMBL document CHEMBL3886653, “Cytomegalovirus inhibitor compounds” (2016).

target: T1, DNA polymerase catalytic subunit (Human cytomegalovirus (strain AD169) (HHV-5) (Human herpesvirus 5), UniProt P08546); test: HCMV Polymerase Scintillation Proximity Assay: The assay conditions are the following: 10 mM HEPES pH 7.5, 25 mM KCl, 7.5 mM NaCl, 5 mM MgCl2, 0.2 mg BSA/mL, 1 mM TCEP, 1.5% glycerol, 2 μM dTTP, 90 nM 3H-dTTP (minor variations in concentration are possible due to specific activity of stock), 26 nM Poly(dA)/190 nM BioTEG-dT19; 5% DMSO. The assay volume is 30 μL. Each reagent is added at a 3× conc.: 10 μL a+10 μL b+10 μL c; a: compound diluted in 10 mM Hepes pH 7.5, 25 mM KCl, 5 mM MgCl2, 1 mM TCEP with 15% DMSO; b: enzyme (GST-UL54) in 10 mM Hepes pH 7.5, 25 mM KCl, 5 mM MgCl2, 22.5 mM NaCl, 4.5% Glycerol, 0.6 mg BSA/mL, 1 mM TCEP w/o DMSO (1 nM GST-UL54 is present in the assay); c: substrate in 10 mM Hepes pH 7.5, 25 mM KCl, 5 mM MgCl2, 1 mM TCEP, 6 μM dTTP, 270 nM 3H-dTTP, 78 nM Poly(dA)/570 nM BioTEG-dT19 w/o DMSO. To perform the assay, 10 μL enzyme solution is added to columns 2-12 and 14-24. The enzyme is substituted by the blank solution (b solution without enzyme) for columns 1 and 13 (blanks). The plate is centrifuged at 200×g for 30 sec. 10 μL of substrate solution is added to each well. The plate is centrifuged at 200×g for 30 sec. The plates are incubated at 37 °C. for 40 min. To stop the reaction, 25 μL of SPA beads (5 mg/mL in 0.5 M EDTA) are added and mixed by pipetting up and down. The plates are incubated at RT for at least 15 min. 35 μL of 5 M CsCl is added to the bottom of each well. TopSeal is applied to the plate and the plate is incubated at RT for at least 90 min prior to reading. The signal is read on TopCount plate reader (Perkin-Elmer) or equivalent.
T1 sequence (P08546 whole entry): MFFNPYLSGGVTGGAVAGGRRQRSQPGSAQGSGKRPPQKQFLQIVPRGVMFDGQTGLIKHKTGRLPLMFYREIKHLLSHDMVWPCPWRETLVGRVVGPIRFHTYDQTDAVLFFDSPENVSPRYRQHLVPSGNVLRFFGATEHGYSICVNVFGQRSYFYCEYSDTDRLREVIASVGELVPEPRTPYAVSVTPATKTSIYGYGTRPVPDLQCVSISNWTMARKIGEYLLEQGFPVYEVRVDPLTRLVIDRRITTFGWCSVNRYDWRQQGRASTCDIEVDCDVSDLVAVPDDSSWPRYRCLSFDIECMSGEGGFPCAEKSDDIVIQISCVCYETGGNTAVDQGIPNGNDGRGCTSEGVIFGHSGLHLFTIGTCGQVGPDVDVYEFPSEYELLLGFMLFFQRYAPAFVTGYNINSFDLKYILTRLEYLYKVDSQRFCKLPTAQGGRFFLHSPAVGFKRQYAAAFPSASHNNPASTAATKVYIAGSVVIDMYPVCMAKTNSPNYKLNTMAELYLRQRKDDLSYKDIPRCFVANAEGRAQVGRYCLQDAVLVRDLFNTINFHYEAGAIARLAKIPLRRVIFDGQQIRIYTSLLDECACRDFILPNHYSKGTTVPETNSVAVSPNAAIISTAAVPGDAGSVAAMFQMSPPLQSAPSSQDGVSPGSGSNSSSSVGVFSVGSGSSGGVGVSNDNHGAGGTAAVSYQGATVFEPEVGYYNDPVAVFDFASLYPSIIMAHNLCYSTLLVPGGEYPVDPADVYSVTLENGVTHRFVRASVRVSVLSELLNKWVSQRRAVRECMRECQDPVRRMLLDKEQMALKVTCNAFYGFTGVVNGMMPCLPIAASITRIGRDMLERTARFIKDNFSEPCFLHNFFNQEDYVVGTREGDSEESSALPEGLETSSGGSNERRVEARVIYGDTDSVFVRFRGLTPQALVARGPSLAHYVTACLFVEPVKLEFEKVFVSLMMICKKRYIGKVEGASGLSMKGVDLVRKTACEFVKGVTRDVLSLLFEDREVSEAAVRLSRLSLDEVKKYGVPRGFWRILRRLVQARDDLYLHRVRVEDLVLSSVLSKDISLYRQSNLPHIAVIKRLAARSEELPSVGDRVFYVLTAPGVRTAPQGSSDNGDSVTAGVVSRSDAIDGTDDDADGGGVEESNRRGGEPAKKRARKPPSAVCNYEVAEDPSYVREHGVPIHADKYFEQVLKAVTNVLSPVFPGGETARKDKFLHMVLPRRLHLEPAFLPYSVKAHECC

First: CC1(C)CN(C(=O)Cn2c(=O)c(C(=O)NCc3ccc(Cl)c(C(F)(F)F)c3)cc3cccnc32)C1
Second: CC1(C)CN(C(=O)Cn2c(=O)c(C(=O)NCc3ccc(Cl)c(Cl)c3)cc3cccnc32)C1
The IC50 of the first is 2.7-fold higher: 38000 nM for the first, 14000 nM for the second. The second is the more potent here.

`O=C(NCc1ccc(Cl)cc1)c1cc2cccnc2n(CC(=O)N2CCCOCC2)c1=O` was tested, and the IC50 was 16000 nM.

target: T1, DNA polymerase catalytic subunit; test: HCMV Polymerase LANCE TR-FRET Assay: The assay conditions are the following: 10 mM HEPES pH 7.5, 25 mM KCl, 7.5 mM NaCl, 5 mM MgCl2, 0.2 mg BSA/mL, 1 mM TCEP, 1.5% glycerol, 5% DMSO, 235 nM dATP, 350 nM dCTP, 350 nM dGTP, 235 nM dTTP, 12 nM biotin-16-dUTP, 23.5 nM Dig-primer/template, 2 nM GST-UL54. The assay volume is 10 μL. Each reagent is added as follow: 4 μL a+3 μL b+3 μL c; a: compound diluted in compound dilution buffer to obtain 12.5% DMSO; b: enzyme (GST-UL54) in 10 mM Hepes pH 7.5, 25 mM KCl, 5 mM MgCl2, 25 mM NaCl, 5% Glycerol, 0.67 mg BSA/mL, 1 mM TCEP w/o DMSO (2 nM GST-UL54 is present in the assay); c: substrate in 10 mM HEPES pH 7.5, 25 mM KCl, 5 mM MgCl2, 1 mM TCEP, 783 nM dATP, 1166 nM dCTP, 1166 nM dGTP, 783 nM dTTP, 40 nM biotin-16-dUTP, 78 nM Dig-primer (5'-/Dig/AGC TCG TTT AGT GAA CC-3')/template (5'-GAGGTCAAAACAGCGTGGATGGCGTCTCCAGGCGATCTGACGGTTCACTAAACGAGCT-3') w/o DMSO. The primer and template are annealed in 10 mM Tris-HCl pH 7.5, 50 mM NaCl at a respective concentration of 50 μM. They are incubated at 95 °C. for 5 min in a dry batch block. The block is removed from the dry bath and allowed to cool to RT. Aliquots are made and stored at −20 °C. To perform the assay, 3 μL of the enzyme solution is added to columns 2-12 and 14-24. The enzyme is substituted by the blank solution (b solution without enzyme) for columns 1 and 13 (blanks). The plate is centrifuged at 200×g for 30 sec. 3 μL of substrate solution is added to each well. The plate is centrifuged at 200×g for 30 sec. Plates are incubated at 37 °C. for 30 min. 5 μL of conjugate solution is added (25 mM Hepes pH 7.5, 0.1 M NaCl, 0.25% Tween-20, 1 mg/mL BSA, 12 mM EDTA, 24 nM Sreptavidin-APC, 342 ng/mL Anti-Dig-Europium). The plates are incubated at RT for at least 120 min. The signal is read on the Envision plate reader (Perkin-Elmer) or equivalent.

First: Cn1cc(-c2cnc3c(c2)cc(C(=O)NCc2ccc(Cl)cc2)c(=O)n3CC(=O)N2CC(F)(CF)C2)cn1
Second: Cn1cnc(-c2cnc3c(c2)cc(C(=O)NCc2ccc(Cl)cc2)c(=O)n3CC(=O)N2CC(C)(F)C2)c1
The IC50 of the first is 2-fold lower: 59 nM for the first, 120 nM for the second.

Going from `CS(=O)(=O)C1CN(C(=O)Cn2c(=O)c(C(=O)NCc3ccc(Cl)cc3)cc3cccnc32)C1` to `NCC1CCN(C(=O)Cn2c(=O)c(C(=O)NCc3ccc(Cl)cc3)cc3cccnc32)C1` (centres undefined), the IC50 falls from 17000 nM to 5600 nM (3-fold).

`CC1CN(C(=O)Cn2c(=O)c(C(=O)NCc3ccc(Cl)cc3)cc3c(-c4cnc(N)nc4)c(-c4cnn(C)c4)cnc32)C1` and `COc1c(-c2cnn(C)c2)cnc2c1cc(C(=O)NCc1ccc(Cl)cc1)c(=O)n2CC(=O)N1CCC(CO)C1` (centres undefined) are within 1.5-fold of each other in IC50: 120 nM for the first, 140 nM for the second.

First: Cc1nc(-c2cnc3c(c2)cc(C(=O)NCc2ccc(Cl)cc2)c(=O)n3CC(=O)N2CC(C)(C)C2)cn1C
Second: CC1(C)CN(C(=O)Cn2c(=O)c(C(=O)NCc3ccc(Cl)cc3)cc3cc(-c4nn[nH]n4)cnc32)C1
The IC50 of the first is 4.3-fold higher: 130 nM for the first, 30 nM for the second. The second is the more potent here.

`Cn1cc(-c2cnc3c(cc(C(=O)NCc4ccc(Cl)cc4)c(=O)n3CC(=O)N3CC(C)(C)C3)c2N2CC(O)C2)cn1` and `CCn1cc(-c2c(O)cnc3c2cc(C(=O)NCc2ccc(Cl)cc2)c(=O)n3CC(=O)N2CC(C)(C)C2)cn1` are within 1.5-fold of each other in IC50: 180 nM for the first, 160 nM for the second.

First: CC1(C)CN(C(=O)Cn2c(=O)c(C(=O)NCc3ccc(Cl)cc3)cc3c(OC[C@@H]4CCC(=O)N4)ccnc32)C1
Second: COCCNc1ccnc2c1cc(C(=O)NCc1ccc(Cl)cc1)c(=O)n2CC(=O)N1CC(C)(C)C1
The IC50 of the first is 3.2-fold lower: 62 nM for the first, 200 nM for the second. The first is the more potent here.

Compared with `CN(CC(=O)O)c1ccnc2c1cc(C(=O)NCc1ccc(Cl)cc1)c(=O)n2CC(=O)N1CC(C)(C)C1`, `CC(C)c1ccnc2c1cc(C(=O)NCc1ccc(Cl)cc1)c(=O)n2CC(=O)N1CC(C)(C)C1` is 4-fold higher in IC50: 50 nM for the first, 200 nM for the second. The first is the more potent here.

Going from `COc1c(-c2sc(C)nc2C)cnc2c1cc(C(=O)NCc1ccc(Cl)cc1)c(=O)n2CC(=O)N1CC(C)(C)C1` to `Cc1cc(Nc2cnc3c(c2)cc(C(=O)NCc2ccc(Cl)cc2)c(=O)n3CC(=O)N2CC(C)(C)C2)n(C)n1`, the IC50 falls from 1200 nM to 180 nM (6.7-fold). The second is the more potent here.

`Cn1cnc(-c2cc3cc(C(=O)NCc4ccc(Cl)cc4)c(=O)n(CC(=O)N4CC(C)(F)C4)c3nc2N)c1` and `Cn1cc(-c2cc3cc(C(=O)NCc4ccc(Cl)cc4)c(=O)n(CC(=O)N4CC(C)(O)C4)c3nc2N)cn1` are within 1.5-fold of each other in IC50: 77 nM for the first, 110 nM for the second.

Compared with `COc1cc(N)nc2c1cc(C(=O)NCc1ccc(Cl)cc1)c(=O)n2CC(=O)N(C)CC1(CO)COC1`, `CN(CC(C)(C)CO)C(=O)Cn1c(=O)c(C(=O)NCc2ccc(Cl)cc2)cc2ccc(NC3CC3)nc21` is 44-fold higher in IC50: 22 nM for the first, 970 nM for the second.

First: CC1CN(C(=O)Cn2c(=O)c(C(=O)NCc3ccc(Cl)cc3)cc3cc(OCC4(C#N)CC4)cnc32)C1
Second: O=C(NCc1ccc(Cl)cc1)c1cc2cccnc2n(CC(=O)N2CC3(CC3)C2)c1=O
The IC50 of the first is 1.6-fold lower: 170 nM for the first, 280 nM for the second. The first is the more potent here.

`CC1(F)CN(C(=O)Cn2c(=O)c(C(=O)NCc3ccc(C#N)cc3)cc3cc(-c4c[nH]cn4)cnc32)C1` and `COc1cc(CNC(=O)c2cc3cc(-c4cn(C)cn4)cnc3n(CC(=O)N3CC(C)(F)C3)c2=O)ccc1Cl` are within 1.5-fold of each other in IC50: 320 nM for the first, 400 nM for the second.

First: CC(=O)NC1CCN(c2cnc3c(c2)cc(C(=O)NCc2ccc(Cl)cc2)c(=O)n3CC(=O)N2CC(C)(C)C2)C1 (centres undefined)
Second: CC1(C)CN(C(=O)Cn2c(=O)c(C(=O)NCc3ccc(Cl)cc3)cc3cc(CN4CCNC(C(F)(F)F)C4)cnc32)C1 (centres undefined)
The IC50 of the first is 2.6-fold higher: 190 nM for the first, 74 nM for the second. The second is the more potent here.

Compared with `CC1(C)CN(C(=O)Cn2c(=O)c(C(=O)NCc3ccc(Cl)cc3)cc3c(-c4cnc(N)nc4)ccnc32)C1`, `CC1(C)CN(C(=O)Cn2c(=O)c(C(=O)NCc3ccc(Cl)cc3)cc3c(Oc4cccnc4)ccnc32)C1` is 3.9-fold higher in IC50: 71 nM for the first, 280 nM for the second. The first is the more potent here.

`Cn1nccc1Cc1cnc2c(c1)cc(C(=O)NCc1ccc(Cl)cc1)c(=O)n2CC(=O)N1CC(C)(C)C1` and `CC1(C)CN(C(=O)Cn2c(=O)c(C(=O)NCc3ccc(Cl)cc3)cc3cc(C(=O)NCc4cnccn4)cnc32)C1` are the same in IC50: 65 nM for the first, 65 nM for the second.

First: CN(CC(C)(C)CO)C(=O)Cn1c(=O)c(C(=O)NCc2ccc(Cl)cc2)cc2ccc(-c3cn[nH]c3)nc21
Second: CNc1ccc2cc(C(=O)NCc3ccc(Cl)cc3)c(=O)n(CC(=O)N3CC(C)(O)C3)c2n1
The IC50 of the first is 8.3-fold higher: 1000 nM for the first, 120 nM for the second.

`NC(=O)[C@@H]1C[C@H](F)CN1C(=O)CCn1c(=O)c(C(=O)NCc2ccc(Cl)cc2)cc2cccnc21` and `CN(C(=O)Cn1c(=O)c(C(=O)NCc2ccc(Cl)cc2)cc2cccnc21)C1CC(O)C1` (centres undefined) are within 1.5-fold of each other in IC50: 210 nM for the first, 220 nM for the second.

First: CC1(C)CN(C(=O)Cn2c(=O)c(C(=O)NCc3ccc(Cl)cc3)cc3c(CCN4CCC4)ccnc32)C1
Second: Cc1noc(C2CCN(C(=O)Cn3c(=O)c(C(=O)NCc4ccc(Cl)cc4)cc4cccnc43)C2)n1 (centres undefined)
The IC50 of the first is 36-fold lower: 280 nM for the first, 10000 nM for the second.
